The values below come from US7468369B2, “Sulfonyl pyrrolidines, method for producing the same and their use as drugs” (Sanofi-Aventis, priority 2005, dated 2008).

Where a name gives a salt, the structure may show the parent alone.

In the assay the test system is human ABCA1 promoter. Description: ABCA1 promoter test (luciferase reporter in stably transfected THP1 cell line). The following applies: Homo sapiens, THP-1; ABCA1 reporter cell line (THP1, PMA-differentiated), 24 h incubation, luciferase chemiluminescence; read-out: E50 ABCA1. The format is cell-based. As for the experimental part: The potency of substances which activate expression of the human ABCA1 gene via its promoter is analyzed by using a stably transfected THP1 cell line (human monocyte cell line) which is referred to herein as ABCA1 reporter cell line. It contains a fragment, 3.2 kb in size and stably integrated into the genome, of the human ABCA1 promoter in front of a luciferase reporter element. Expression of the luciferase reporter gene is only low without addition of an ABCA1 expression activator. The substances stimulating ABCA1 expression bring about, via activation of the ABCA1 promoter, an enhanced expression of the luciferase reporter gene. The luciferase which is formed can be detected via an appropriate substrate by means of chemiluminescence.
Construction of the Cell Line
The ABCA1 reporter line was prepared as follows: firstly the neomycin resistance gene (Acc. No.: AJ000156) was introduced into the luciferase reporter plasmid pLG3basic (#1751, Promega) 3′ below the luciferase reporter element. Subsequently, an ABCA1 promoter fragment, 3.2 kb in size and amplified from human genomic DNA (#6550-1, Clontech) by the polymerase chain reaction, was cloned in 5′ above the luciferase reporter element. The reporter plasmid produced in this way was called pGL3BN-ABCA1P. Luciferase expression in this plasmid is controlled by the ABCA1 promoter. Cloning and sequencing of the construct took place in analogy to the description in Sambrook J et al. (Molecular cloning, Cold Spring Harbor Laboratory Press, 1989). For stable transfection into THP1 cells, firstly pGL3BN-ABCA1P was linearized with a restriction endonuclease and then introduced into the THP1 cells as stated in Ausubel, F. M. et al. (Current protocols in molecular biology, Vol. 1-3, John Wiley & Sons, Inc., 1995).
The activity of ABCA1 expression activators is determined in a 3-day test which is described below:
The ABCA1 reporter cell line comprises suspension cells. These are cultured until the concentration is 0.5×10^6 cells/ml in RPMI medium (#52400-025, Invitrogen) which is mixed with the following additions: 10% FCS (fetal calf serum; #16000-044, invitrogen), 0.5 mg/ml Geneticin (#10131-019, invitrogen) and 1% penicillin-streptomycin solution (#15140-122, invitrogen). The culturing takes place in standard cell culture flasks (#353112, Becton Dickinson) in a cell culture incubator at 37° C. in the presence of 5% CO2.
For the ABCA1 promoter test, the suspension cells are centrifuged at 1200 rpm in 50 ml tubes. The supernatant is aspirated off, and the pellet is resuspended in 15 ml of RPMI medium and counted in a cell counter. After dilution to 175 000 cells/ml, 0.1 μg/ml PMA (phorbol 12-myristate 13-acetate, #8139-5MG, Sigma) is added in order to induce differentiation of the monocytic THP1 suspension cells into adherent macrophages. 35 000 cells in each well are seeded in a 96-well microtiter plate with clear plastic base (#3610, Corning Costar). The plates are incubated in a cell culture incubator at 37° C. and 5% CO2 for 24 h.
The ABCA1 expression activators to be tested are dissolved in a concentration of 10 mM in DMSO. This stock solution is diluted in the RPMI medium (mixed with 0.1 μg/ml PMA) described above. Test substances are tested in 11 different concentrations in the range from […] to 330 pM. The medium of the ABCA1 reporter cell line seeded on day 1 is completely removed by aspiration and the diluted test substances are immediately added to the cells. The dilution and addition of the substances takes place with a pipetting robot (Beckman FX). The final volume of the test substances diluted in medium is 100 μl per well of a 96-well microtiter plate. The DMSO concentration in the test is less than 0.1% v/v in order to avoid cytotoxic effects of the solvent.
The test plates are incubated in an incubator at 37° C. and 5% CO2 for 24 h.
The ABCA1 reporter cells treated with the test substances are removed from the incubator and the medium is aspirated off. […]
Background: In a reporter assay the amount or activity of a reporter protein is the signal.
As to `COc1cccc(S(=O)(=O)N2C[C@@H](C(=O)N3CCN(c4cc(C)ccc4C)CC3)[C@H](c3ccc4c(c3)OCO4)C2)c1` [Example 88, [3,4-trans-4-Benzo[1,3]dioxol-5-yl-1-(3-methoxybenzenesulfonyl)pyrrolidin-3-yl]-[4-(2,5-dimethylphenyl)piperazin-1-yl]methanone trifluoroacetate], the EC50 is 2720 nM.

Turning to `COc1ccc(OC)c(N2CCN(C(=O)[C@@H]3CN(S(=O)(=O)c4c(C)noc4C)C[C@H]3c3ccccc3)CC2)c1` [Example 81], the EC50 amounted to 1820 nM. On to `Cc1ccc(C)c(N2CCN(C(=O)[C@H]3CN(S(=O)(=O)c4c(C)noc4C)C[C@H]3c3ccccc3)CC2)c1` [Example 118, [1-(3,5-Dimethylisoxazole-4-sulfonyl)-3,4-cis-4-phenylpyrrolidin-3-yl]-[4-(2,5-dimethylphenyl)piperazin-1-yl]methanone trifluoroacetate], for which the EC50 came to 346 nM.

Regarding `COc1cccc(S(=O)(=O)N2C[C@@H](C(=O)N3CCN(c4c(C)cccc4C)CC3)[C@H](c3ccccc3)C2)c1` (racemic) [Example 86], the EC50 came to 459 nM. For the compound `Cc1ccc(C)c(N2CCN(C(=O)[C@@H]3CN(S(=O)(=O)c4cccc5nonc45)C[C@H]3c3ccccc3)CC2)c1` [Example 68, [1-(Benzene[1,2,5-oxadiazol-4-sulfonyl)-3,4-trans-4-phenylpyrrolidin-3-yl]-[4-(2,5-dimethylphenyl)piperazin-1-yl]methanone trifluoroacetate], the EC50 came to 869 nM. `O=C([C@@H]1CN(S(=O)(=O)c2cc(Br)c(Br)s2)C[C@H]1c1ccccc1)N1CCN(c2cccc(C(F)(F)F)c2)CC1` (racemic) [Example 31, [1-(4,5-Dibromothiophene-2-sulfonyl)-3,4-trans-4-phenylpyrrolidin-3-yl]-[4-(3-trifluoromethylphenyl)piperazin-1-yl]methanone]: the EC50 is 1770 nM.

For the compound `Cc1ccc(N2CCN(C(=O)[C@@H]3CN(S(=O)(=O)c4cc(Br)c(Br)s4)C[C@H]3c3ccccc3)CC2)cc1C` (racemic) [Example 43, [1-(4,5-Dibromothiophene-2-sulfonyl)-3,4-trans-4-phenylpyrrolidin-3-yl]-[4-(3,4-dimethylphenyl)piperazin-1-yl]methanone], the EC50 turned out to be 4080 nM. For `COc1ccc(OC)c(N2CCN(C(=O)[C@@H]3CN(S(=O)(=O)c4cccc(C)c4)C[C@H]3c3ccccc3)CC2)c1` [Example 80, [4-2,5-Dimethoxyphenyl)piperazin-1-yl]-[3,4-trans-4-phenyl-1-(toluene-3-sulfonyl)pyrrolidin-3-yl]methanone trifluoroacetate], the EC50 was determined as 3150 nM.

For the compound `Cc1cccc(N2CCN(C(=O)[C@@H]3CN(S(=O)(=O)c4cccs4)C[C@H]3c3ccccc3)CC2)c1C` (racemic) [Example 52], the EC50 came out at 3270 nM.

As to `Cc1ccc(N2CCN(C(=O)[C@@H]3CN(S(=O)(=O)c4ccc(Cl)s4)C[C@H]3c3ccccc3)CC2)cc1C` (racemic) [Example 44, [1-(5-Chlorothiophene-2-sulfonyl)-3,4-trans-4-phenylpyrrolidin-3-yl]-[4-(3,4-dimethylphenyl)piperazin-1-yl]methanone], the EC50 was 15100 nM.

Consider `Cc1ccc(C)c(N2CCN(C(=O)[C@@H]3CN(S(=O)(=O)c4c(C)noc4C)C[C@H]3Cc3ccccc3)CC2)c1` [Example 93, [3,4-trans-4-Benzyl-1-(3,5-dimethylisoxazole-4-sulfonyl)pyrrolidin-3-yl]-[4-(2,5-dimethylphenyl)piperazin-1-yl]methanone trifluoroacetate], for which the EC50 was 2480 nM. With `Cc1cccc(N2CCN(C(=O)[C@@H]3CN(S(=O)(=O)c4cc(Cl)c(Cl)s4)C[C@H]3c3ccccc3)CC2)c1C` (racemic) [Example 55, [1-(4,5-Dichlorothiophene-2-sulfonyl)-3,4-trans-4-phenylpyrrolidin-3-yl]-[4-(2,3-dimethylphenyl)piperazin-1-yl]methanone] the figure was 826 nM. For `COc1cccc(S(=O)(=O)N2C[C@@H](C(=O)N3CCN(c4cc(C)ccc4C)CC3)[C@H](c3ccccc3)C2)c1` (racemic) [Example 69, [4-(2,5-Dimethylphenyl)piperazin-1-yl]-[1-(3-methoxybenzenesulfonyl)-3,4-trans-4-phenylpyrrolidin-3-yl]methanone], the EC50 worked out at 330 nM.

`COc1ccc(S(=O)(=O)N2C[C@@H](C(=O)N3CCN(c4cc(Cl)ccc4Cl)CC3)[C@H](c3ccccc3)C2)cc1` [Example 75, [4-(2,5-Dichlorophenyl)piperazin-1-yl]-[1-(4-methoxybenzenesulfonyl)-3,4-trans-4-phenylpyrrolidin-3-yl]methanone trifluoroacetate]: the EC50 was determined as 980 nM. The value for `Cc1ccc(C)c(N2CCN(C(=O)[C@@H]3CN(S(=O)(=O)c4c(C)noc4C)C[C@H]3c3cccnc3)CC2)c1` [Example 112, [1-(3,5-Dimethylisoxazole-4-sulfonyl)-3,4-trans-4-pyridin-3-ylpyrrolidin-3-yl]-[4-(2,5-dimethylphenyl)piperazin-1-yl]methanone trifluoroacetate] was 14300 nM.

As for `COc1ccc(OC)c(N2CCN(C(=O)[C@@H]3CN(S(=O)(=O)CC(F)(F)F)C[C@H]3c3ccccc3)CC2)c1` [Example 76, [4-(2,5-Dimethoxyphenyl)piperazin-1-yl]-[3,4-trans-4-phenyl-1-(2,2,2-trifluoroethanesulfonyl)pyrrolidin-3-yl]methanone trifluoroacetate], the EC50 was 3120 nM.

As to `COc1cccc(S(=O)(=O)N2C[C@@H](C(=O)N3CCN(c4cc(C)ccc4C)CC3)[C@H](C(C)C)C2)c1` [Example 96, [4-(2,5-Dimethylphenyl)piperazin-1-yl]-[3,4-trans-4-isopropyl-1-(3-methoxy-benzenesulfonyl)pyrrolidin-3-yl]methanone trifluoroacetate], the EC50 was 3600 nM.

In the case of `COc1ccccc1N1CCN(C(=O)[C@@H]2CN(S(=O)(=O)c3cc(Cl)c(Cl)s3)C[C@H]2c2ccccc2)CC1` (racemic) [Example 27, [1-(4,5-Dichlorothiophene-2-sulfonyl)-3,4-trans-4-phenylpyrrolidin-3-yl]-[4-(2-methoxyphenyl)piperazin-1-yl]methanone], the EC50 turned out to be 6990 nM. With `Cc1cccc([C@@H]2CN(S(=O)(=O)c3c(C)noc3C)C[C@H]2C(=O)N2CCN(c3cc(C)ccc3C)CC2)c1` [Example 101, [1-(3,5-Dimethylisoxazole-4-sulfonyl)-3,4-trans-4-m-tolylpyrrolidin-3-yl]-[4-(2,5-dimethylphenyl)piperazin-1-yl]methanone trifluoroacetate] the figure was 1850 nM; with `Cc1ccc(C)c(N2CCN(C(=O)[C@@H]3CN(S(=O)(=O)c4c(C)noc4C)C[C@H]3c3ccoc3)CC2)c1` [Example 115, [1-(3,5-Dimethylisoxazole-4-sulfonyl)-3,4-trans-4-furan-3-ylpyrrolidin-3-yl]-[4-(2,5-dimethylphenyl)piperazin-1-yl]methanone trifluoroacetate], 2640 nM; with `Cc1ccc(C)c(N2CCN(C(=O)[C@@H]3CN(S(=O)(=O)c4c(C)noc4C)C[C@H]3c3ccc4c(c3)OCO4)CC2)c1` [Example 87, [3,4-trans-4-Benzo[1,3]dioxol-5-yl-1-(3,5-dimethylisoxazole-4-sulfonyl)-pyrrolidin-3-yl]-[4-(2,5-dimethylphenyl)piperazin-1-yl]methanone trifluoroacetate], 1230 nM.
